Assay results taken from publication PMC9819389, “Antiandrogenic and Estrogenic Activity Evaluation of Oxygenated and Nitrated Polycyclic Aromatic Hydrocarbons Using Chemically Activated Luciferase Expression Assays” (International Journal of Environmental Research and Public …, 2022).
Entries after “also recorded” stand apart in the source; their conditions may differ. Like-named read-outs stand apart in the source and are kept apart here. Marks after values point to notes of the source that are not given here.

Key:
human AR [1] = target: T1, human AR (Homo sapiens, UniProt P10275); set-up: method as in Otsuki et al. [38]; key: +, positive; details: previous study; ref Otsuki et al. [38]; cited from earlier work
T1 sequence (P10275 1-920): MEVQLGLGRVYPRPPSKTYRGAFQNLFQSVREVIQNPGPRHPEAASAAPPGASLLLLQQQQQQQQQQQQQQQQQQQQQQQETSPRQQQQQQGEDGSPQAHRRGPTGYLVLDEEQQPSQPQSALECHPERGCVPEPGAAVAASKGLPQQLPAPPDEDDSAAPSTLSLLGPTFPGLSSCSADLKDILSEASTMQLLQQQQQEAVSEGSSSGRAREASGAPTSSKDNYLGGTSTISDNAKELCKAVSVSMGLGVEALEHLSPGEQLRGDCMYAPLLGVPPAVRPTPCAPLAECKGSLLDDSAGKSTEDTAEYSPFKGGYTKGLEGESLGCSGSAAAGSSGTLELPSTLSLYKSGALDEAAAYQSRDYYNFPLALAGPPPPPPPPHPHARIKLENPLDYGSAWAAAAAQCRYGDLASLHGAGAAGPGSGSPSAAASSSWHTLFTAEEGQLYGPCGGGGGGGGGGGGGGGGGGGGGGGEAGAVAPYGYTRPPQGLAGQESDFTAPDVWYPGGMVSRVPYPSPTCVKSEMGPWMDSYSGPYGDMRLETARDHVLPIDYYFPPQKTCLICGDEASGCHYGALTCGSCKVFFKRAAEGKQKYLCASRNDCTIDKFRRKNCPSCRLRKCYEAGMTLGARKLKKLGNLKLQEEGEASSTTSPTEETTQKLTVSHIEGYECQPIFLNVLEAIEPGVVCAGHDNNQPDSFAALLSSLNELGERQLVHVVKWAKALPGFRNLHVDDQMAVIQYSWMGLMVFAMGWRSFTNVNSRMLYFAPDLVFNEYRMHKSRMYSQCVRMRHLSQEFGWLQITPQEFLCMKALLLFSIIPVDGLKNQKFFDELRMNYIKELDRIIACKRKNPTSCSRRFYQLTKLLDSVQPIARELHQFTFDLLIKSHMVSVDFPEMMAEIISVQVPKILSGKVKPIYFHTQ

human AR [2] = target: T1, human AR; test: AR-CALUX assay, antiandrogenic (AR antagonistic) activity, U2OS-luc cells; format: cell-based; set-up: host or cells: human U2OS-luc (osteoblastic osteosarcoma) cells; details: for IC25 / REPmol (IC25) / antiandrogenic activity (in words): present study; for IC25: 24 h exposure with 100 pM DHT (EC50 level); for REPmol (IC25): molar relative potency to flutamide, IC25-based; for IC50: read-out: IC50
Description: The AR- and ER-CALUX assays for the polycyclic aromatic compounds were evaluated according to previously described methods, which used human U2OS-luc cells developed by BioDetection Systems b.v. (Amsterdam, The Netherlands). The cells are transfected stably with human AR and ER, respectively, and a luciferase reporter gene under their respective steroid receptor response elements. […] They were incubated at 37 °C in a humidified atmosphere containing 5% carbon dioxide. […] The medium was then removed, and the cells were lysed. A solution of luciferin was then added, and the luminescence intensity was measured with an ARVO™ X3 luminometer from PerkinElmer (Waltham, MA, USA). A sigmoid dose–response curve for a chemical was fitted to the Hill equation given by Equation (1) using SigmaPlot 11.0 from Systat Software Inc. (San Jose, CA, USA). y = min + (max − min)/(1 + (a1/x)^a^2)(1) where, y and x are the measured luciferase induction level and compound concentration, respectively. […] The REP values in mol base were obtained by dividing the ICs or ECs of the standard by the ICs or ECs of target compound, respectively.
All measurements were conducted in triplicate wells. They were repeated twice and trice in the AR- and ER-CALUX assays, respectively, for each concentration in dose–response curve. […] Cell viability was confirmed using 3-(4,5-dimethylthiazol-2-yl)-2,5-diphenyltetrazolium bromide (MTT) assay. If the cell viability was <80% in the positive control, the corresponding exposure dose was considered cytotoxic and excluded from the calculation.

human ER = target: T2, human ER (Homo sapiens, UniProt P03372); test: ER-CALUX assay, estrogenic activity, U2OS-luc cells; format: cell-based; set-up: host or cells: human U2OS-luc (osteoblastic osteosarcoma) cells; details: for EC50 / REPmol (EC50): present study; for EC50: 24 h exposure; for REPmol (EC50): molar relative potency to E2, EC50-based
T2 sequence (P03372 1-595): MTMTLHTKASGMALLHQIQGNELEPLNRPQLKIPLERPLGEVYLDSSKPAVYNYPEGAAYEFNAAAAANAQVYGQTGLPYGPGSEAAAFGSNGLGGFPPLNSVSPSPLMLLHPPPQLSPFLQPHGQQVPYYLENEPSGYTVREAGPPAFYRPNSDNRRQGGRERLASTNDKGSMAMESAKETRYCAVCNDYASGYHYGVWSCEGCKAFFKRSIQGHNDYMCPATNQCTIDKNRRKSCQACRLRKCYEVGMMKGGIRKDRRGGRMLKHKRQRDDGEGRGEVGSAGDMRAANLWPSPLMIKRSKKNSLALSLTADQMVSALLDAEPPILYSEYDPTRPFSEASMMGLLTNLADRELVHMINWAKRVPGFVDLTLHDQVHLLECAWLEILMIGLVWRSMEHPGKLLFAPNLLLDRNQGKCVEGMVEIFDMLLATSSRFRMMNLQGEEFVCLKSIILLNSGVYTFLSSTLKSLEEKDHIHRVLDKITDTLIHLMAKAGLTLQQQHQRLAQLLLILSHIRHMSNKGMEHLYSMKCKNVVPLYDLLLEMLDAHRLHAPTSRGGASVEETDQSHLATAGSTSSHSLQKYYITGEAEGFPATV

AR [3] = details: previous study, relative to flutamide, cited from earlier work
ER [4] = system: ER; set-up: method as in Boonen et al. [33]; details: previous study; relative to E2; ref Boonen et al. [33]; cited from earlier work
AR [5] = system: AR; set-up: method as in Okamura et al. [22]; key: +, positive; details: cited from earlier work
ER [6] = system: ER; set-up: method as in Pieterse et al. [30]; details: previous study; relative to E2; ref Pieterse et al. [30]; cited from earlier work
ER [7] = details: cited from earlier work
[8] = previous study, ref Okamura et al. [22]
[9] = previous study, relative to E2, ref Šimečková et al. [44]

## O=[N+]([O-])c1ccc2ccc3c([N+](=O)[O-])ccc4ccc1c2c43 [1,6-DNPy, 1,6-dinitropyrene]
Human AR [1]
  antiandrogenic activity, Yeast: +
Human AR [2]; at 0.1 μM (100 nM), maximum soluble concentration, read-out: inhibition of AR activation
  inhibition at 0.1 µM: > 20%
Human ER
  EC50: U (key: U: < 10% response of 1 nM E2; nd: not detected)
  REPmol (EC50): U (key: U: < 10% response of 1 nM E2; nd: not detected)

## O=[N+]([O-])c1ccc2ccc3cccc4ccc1c2c34 [1-NPy, 1-nitropyrene]
Human AR [1]
  antiandrogenic activity, Yeast: +
Human AR [2]
  IC25: 94 nM
  REPmol (IC25): 1.4
  IC50: 220 nM
Human ER; at 10 μM
  activation (level of the response to 1 nM E2): 14% activation at 10 μM

## c1ccc2cc3ccccc3cc2c1 [Ant, abthracene]
AR [3]; ref Marin-Kuan et al. [29]
  REPmol, U2OS: 0.2 ^d
ER [4]
  REPmol, VM7: 8.3 × 10^−7

## O=C1c2ccccc2-c2cccc3cccc1c23 [BAO, 7H-benz[de]anthracen-7-one]
AR [3]; ref Weiss et al. [34]
  REPmol, U2OS: 0.014 ^c
Human ER; read-out: EC50
  EC50: 16000 nM

## c1cc2ccc3ccc4ccc5cccc6c(c1)c2c3c4c56 [BPe, Benzo[ghi]perylene]
AR [5]
  antiandrogenic activity, PC3: +

## c1ccc2c(c1)cc1ccc3cccc4ccc2c1c34 [B[a]P, benzo[a]pyrene]
AR [3]; ref Marin-Kuan et al. [29]
  REPmol, U2OS: 0.4
AR [3]; ref Pieterse et al. [30]
  REPmol, U2OS: 0.1
AR [5]; [8]
  antiandrogenic activity, PC3: +
ER [6]
  REPmol, U2OS: 2 × 10^−6
ER [4]
  REPmol, VM7: 5.3 × 10^−6
ER [7]; [9]
  REPmol, T47D: 3.1 × 10^−6

## c1ccc2c(c1)-c1cccc3c1c-2cc1ccccc13 [B[b]FA, benzo[b]fluoranthene]
AR [5]; [8]
  antiandrogenic activity, PC3: +

## c1ccc2c(c1)c1cccc3ccc4cccc2c4c31 [B[e]P, benzo[e]pyrene]
AR [5]; [8]
  antiandrogenic activity, PC3: +
Human AR [2]; at 10 μM, maximum soluble concentration, read-out: inhibition of AR activation
  inhibition at 10 µM: > 15%
Human AR [2]
  antiandrogenic activity (in words): partial antagonist
Human ER
  EC50: U (key: U: < 10% response of 1 nM E2; nd: not detected)
  REPmol (EC50): U (key: U: < 10% response of 1 nM E2; nd: not detected)

## c1ccc2c3c(ccc2c1)-c1cccc2cccc-3c12 [B[j]FA, benzo[j]fluoranthene]
AR [5]; [8]
  antiandrogenic activity, PC3: +
Human AR [2]
  IC25: 130 nM
  REPmol (IC25): 0.84
  IC50: 290 nM
Human ER; at 3 μM
  activation (level of the response to 1 nM E2): 13% activation at 3 μM

## c1ccc2cc3c(cc2c1)-c1cccc2cccc-3c12 [B[k]FA, benzo[k]fluoranthene]
AR [3]; ref Alvarez-Muñoz et al. [28]
  REPmol, U2OS: 2.6 ^f
AR [5]; [8]
  antiandrogenic activity, PC3: +

## c1ccc2c(c1)ccc1c3ccccc3ccc21 [Chr, Chrysene]
AR [5]
  antiandrogenic activity, PC3: +
ER [7]
  REPmol, T47D: U (key: U: < 10% response of 1 nM E2; nd: not detected)

## c1ccc2c(c1)cc1ccc3c4ccccc4cc4ccc2c1c43 [DB[a,h]P, dibenzo[a,h]pyrene]
AR [3]; ref Pieterse et al. [30]
  REPmol, U2OS: <0.003 ^e
ER [6]
  REPmol, U2OS: 2 × 10^−5
Human AR [2]
  antiandrogenic activity (in words): not observed; also recorded: inactive

## C[C@]12CC[C@@H]3c4ccc(O)cc4CC[C@H]3[C@@H]1CC[C@@H]2O [E2, 17β-estradiol, reference compound]
ER [6]
  REPmol, U2OS: 1
ER [4]
  REPmol, VM7: 1
ER [7]; [9]
  REPmol, T47D: 1

## c1ccc2c(c1)-c1cccc3cccc-2c13 [FA, fluoranthene]
AR [3]; ref Alvarez-Muñoz et al. [28]
  REPmol, U2OS: 0.96 ^f
ER [4]
  REPmol, VM7: 4.1 × 10^−7

## c1ccc2c(c1)-c1ccc3ccc4cccc5cc-2c1c3c45 [IdP, indeno[1,2,3-cd]pyrene]
AR [3]; ref Alvarez-Muñoz et al. [28]
  REPmol, U2OS: 0.35 ^f
AR [5]; [8]
  antiandrogenic activity, PC3: +

## c1ccc2c(c1)ccc1ccccc12 [Phe, phenanthrene]
AR [3]; ref Pieterse et al. [30]
  REPmol, U2OS: 0.1 ^e
ER [6]
  REPmol, U2OS: <3 × 10^−9
ER [4]
  REPmol, VM7: 1.2 × 10^−6

## c1cc2ccc3cccc4ccc(c1)c2c34 [Py, pyrene]
AR [3]; ref Alvarez-Muñoz et al. [28]
  REPmol, U2OS: 0.41
AR [3]; ref Pieterse et al. [30]
  REPmol, U2OS: 0.03
AR [5]; [8]
  antiandrogenic activity, PC3: +
ER [7]; [9]
  REPmol, T47D: 5.3 × 10^−7
